Values joined by “and” are separate entries in the source; they are usually repeats but may differ in a detail not shown here. Equal values may be shown once.
Legend:
H1 (rat) = H1 (rat) (Rattus norvegicus, UniProt P31390); assay: H1 (rat) competitive binding assay; conditions: Table 7A; Ki in nM
Experimental: (§1) Binding assays were performed using various sleep-inducing agents and derivatives selected from those listed in Table 1 in competitive binding assays with known standards for the H1 histamine receptor, and the M1, M2, and M3 muscarinic receptors, alpha 1 and alpha 2 receptors, D1 and D2 receptors, 5HT2a, 5HT2b, 5HT2c, 5HT2c, and 5HT7 receptors.
(§2) The histamine H1 assays are described in Chang, et al., Heterogeneity of Histamine H1-Receptors: Species Variation in [^3H]Mepyramine Binding of Brain Membranes. Journal of Neurochemistry. 32: 1653-1663 (1979); Martinez-Mir, M. I., Pollard, H., Moreau, J., et al. Three Histamine Receptors (H1, H2, and H3) Visualized in the Brain of Human and Non-Human Primates. Brain Res. 526: 322-327 (1990); Haaksma, E. E. J., Leurs, R. and Timmerman, H. Histamine Receptors: Subclasses and Specific Ligands. Pharmac. Ther. 47: 73-104 (1990). The muscarinic assays are described in Buckley, N. J., Bonner, T. I., Buckley, C. M., and Brann, M. R. Antagonist Binding Properties of Five Cloned Muscarinic Receptors Expressed in CHO-K1 Cells. Mol. Pharmacol. 35: 469-476 (1989). The assays were performed according to the preceding articles, with the following modifications. Chemical reagents in the following were obtained from Sigma, St. Louis, Mo.

H1 (hr) = target: T1, H1 (hr) (Homo sapiens, UniProt P35367); assay: H1 (hr) Novascreen binding assay; conditions: Table 7A; Ki in nM
T1 construct: Novascreen, MDS, Cerep (assay providers)
T1 sequence (P35367 whole entry): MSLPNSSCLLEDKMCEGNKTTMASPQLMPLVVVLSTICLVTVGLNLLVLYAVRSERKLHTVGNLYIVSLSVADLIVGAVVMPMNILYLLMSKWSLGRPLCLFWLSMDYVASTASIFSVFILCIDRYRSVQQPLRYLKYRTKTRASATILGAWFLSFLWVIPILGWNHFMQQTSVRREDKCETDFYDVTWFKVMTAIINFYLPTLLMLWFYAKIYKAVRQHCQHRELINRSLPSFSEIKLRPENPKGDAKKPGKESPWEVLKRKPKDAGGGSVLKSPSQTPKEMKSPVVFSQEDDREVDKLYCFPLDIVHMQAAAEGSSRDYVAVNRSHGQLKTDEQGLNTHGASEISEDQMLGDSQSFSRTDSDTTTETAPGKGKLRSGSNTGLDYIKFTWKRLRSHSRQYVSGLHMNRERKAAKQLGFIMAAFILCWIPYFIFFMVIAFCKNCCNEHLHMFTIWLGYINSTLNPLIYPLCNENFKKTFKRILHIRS
Experimental: as §1, §2

[1] = target: T2, histamine H1 receptor (bovine) (Bos taurus, UniProt P30546); assay: Histamine H1 binding assay, bovine cerebellar membranes, [3H]pyrilamine; conditions: for Ki: Table 7A, Ki in nM
T2 construct: the receptors were obtained from bovine cerebellar membrane tissue; from tissue; host or cells: bovine cerebellar membranes
T2 sequence (P30546 whole entry): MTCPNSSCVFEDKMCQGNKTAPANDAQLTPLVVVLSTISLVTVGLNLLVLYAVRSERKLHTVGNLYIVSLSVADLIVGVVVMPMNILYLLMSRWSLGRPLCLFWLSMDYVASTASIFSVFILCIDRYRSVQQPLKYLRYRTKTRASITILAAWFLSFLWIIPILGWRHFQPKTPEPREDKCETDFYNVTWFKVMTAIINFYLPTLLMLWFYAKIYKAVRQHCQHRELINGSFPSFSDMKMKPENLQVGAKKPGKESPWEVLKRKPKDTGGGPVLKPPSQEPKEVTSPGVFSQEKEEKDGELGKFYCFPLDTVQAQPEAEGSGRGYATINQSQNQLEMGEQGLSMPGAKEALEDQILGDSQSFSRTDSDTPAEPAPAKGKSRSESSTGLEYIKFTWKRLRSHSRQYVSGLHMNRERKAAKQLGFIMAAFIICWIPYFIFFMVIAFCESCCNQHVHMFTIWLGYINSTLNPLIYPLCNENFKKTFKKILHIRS

[2] = target: T3, human recombinant M1 expressed in CHO cells (Homo sapiens, UniProt P11229); assay: M1 muscarinic receptor binding assay; conditions: Table 7A, first line of column M1 M2 M3
T3 construct: purchased PerkinElmer, Inc., Wellesley, Mass; host or cells: CHO cells
T3 sequence (P11229 1-460): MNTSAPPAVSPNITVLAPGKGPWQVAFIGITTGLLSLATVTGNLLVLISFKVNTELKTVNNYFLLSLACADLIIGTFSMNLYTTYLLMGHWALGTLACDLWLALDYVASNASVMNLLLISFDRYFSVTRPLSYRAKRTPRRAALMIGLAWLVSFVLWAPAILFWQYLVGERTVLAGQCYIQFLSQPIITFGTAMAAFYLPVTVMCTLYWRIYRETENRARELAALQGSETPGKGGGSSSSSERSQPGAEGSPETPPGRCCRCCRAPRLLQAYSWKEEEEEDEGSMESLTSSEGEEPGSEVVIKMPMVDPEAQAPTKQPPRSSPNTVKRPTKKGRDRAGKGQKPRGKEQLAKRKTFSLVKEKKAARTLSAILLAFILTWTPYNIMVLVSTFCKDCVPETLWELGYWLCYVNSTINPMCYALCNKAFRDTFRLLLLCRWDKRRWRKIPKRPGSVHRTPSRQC

[3] = target: T4, human recombinant M2 expressed in CHO cells (Homo sapiens, UniProt P08172); assay: M2 muscarinic receptor binding assay; conditions: Table 7A, M1 M2 M3
T4 construct: purchased PerkinElmer, Inc., Wellesley, Mass; host or cells: CHO cells
T4 sequence (P08172 1-466): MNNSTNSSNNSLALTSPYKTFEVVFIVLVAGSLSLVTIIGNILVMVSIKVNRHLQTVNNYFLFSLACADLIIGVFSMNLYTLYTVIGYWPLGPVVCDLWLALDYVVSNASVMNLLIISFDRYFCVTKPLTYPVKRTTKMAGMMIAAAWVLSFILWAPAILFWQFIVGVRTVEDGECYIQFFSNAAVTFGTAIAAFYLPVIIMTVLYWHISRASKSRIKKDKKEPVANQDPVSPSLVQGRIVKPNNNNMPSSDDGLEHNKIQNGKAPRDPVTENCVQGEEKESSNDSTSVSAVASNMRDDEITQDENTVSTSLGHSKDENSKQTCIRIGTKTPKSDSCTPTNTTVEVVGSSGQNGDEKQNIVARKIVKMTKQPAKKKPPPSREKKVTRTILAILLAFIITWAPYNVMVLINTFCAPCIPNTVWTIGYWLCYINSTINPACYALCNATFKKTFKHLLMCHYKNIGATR

[4] = target: T5, human recombinant M3 expressed in CHO cells (Homo sapiens, UniProt P20309); assay: M3 muscarinic receptor binding assay; conditions: Table 7A, third line of column M1 M2 M3
T5 construct: purchased PerkinElmer, Inc., Wellesley, Mass; host or cells: CHO cells
T5 sequence (P20309 whole entry): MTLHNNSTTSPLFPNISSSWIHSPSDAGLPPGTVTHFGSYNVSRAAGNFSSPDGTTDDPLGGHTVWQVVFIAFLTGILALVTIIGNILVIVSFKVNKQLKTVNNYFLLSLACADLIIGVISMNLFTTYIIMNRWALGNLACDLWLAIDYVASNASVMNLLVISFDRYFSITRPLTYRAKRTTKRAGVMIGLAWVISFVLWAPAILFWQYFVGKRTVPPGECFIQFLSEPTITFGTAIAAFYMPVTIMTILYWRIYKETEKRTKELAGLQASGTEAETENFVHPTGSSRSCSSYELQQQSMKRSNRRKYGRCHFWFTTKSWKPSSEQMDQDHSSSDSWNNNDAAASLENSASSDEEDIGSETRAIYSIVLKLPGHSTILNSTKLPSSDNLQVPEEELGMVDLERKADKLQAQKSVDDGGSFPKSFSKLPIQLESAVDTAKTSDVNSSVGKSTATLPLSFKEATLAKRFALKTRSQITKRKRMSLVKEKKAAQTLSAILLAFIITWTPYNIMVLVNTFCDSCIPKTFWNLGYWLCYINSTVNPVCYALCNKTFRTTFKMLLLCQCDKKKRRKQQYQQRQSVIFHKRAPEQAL

D1 (h) = D1 (h) (Homo sapiens, UniProt P21728); assay: Dopamine D1 (human recombinant) binding assay; conditions: Table 7A; unit inferred
Chain of D1 (h) (P21728 whole entry): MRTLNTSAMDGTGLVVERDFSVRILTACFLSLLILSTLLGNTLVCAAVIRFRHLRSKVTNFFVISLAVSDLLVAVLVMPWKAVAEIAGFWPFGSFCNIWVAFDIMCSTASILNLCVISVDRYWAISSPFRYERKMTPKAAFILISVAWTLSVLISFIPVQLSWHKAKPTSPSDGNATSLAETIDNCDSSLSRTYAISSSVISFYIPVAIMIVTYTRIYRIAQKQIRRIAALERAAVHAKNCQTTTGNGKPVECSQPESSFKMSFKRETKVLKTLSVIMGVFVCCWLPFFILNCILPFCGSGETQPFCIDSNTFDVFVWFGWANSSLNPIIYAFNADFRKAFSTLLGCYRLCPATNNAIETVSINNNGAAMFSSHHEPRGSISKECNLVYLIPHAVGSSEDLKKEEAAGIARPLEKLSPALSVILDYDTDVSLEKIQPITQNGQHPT
Experimental: Dopamine, D1 (human recombinant) binding assay was performed according to published procedures. See, e.g., Jarvie, et al. J. Recept Res., 13(1-4): 573-90 (1993); and Billard, et al. Life Sciences, 35(18): 1885-93 (1984), with modifications

5HT2a (hctx) = target: T6, 5HT2a (hctx) (Homo sapiens, UniProt P28223); assay: 5HT2a (hctx) binding assay; conditions: Table 7B; unit inferred
T6 construct: (hctx); from tissue; host or cells: human cortex (my reading of 'hctx')
T6 sequence (P28223 whole entry): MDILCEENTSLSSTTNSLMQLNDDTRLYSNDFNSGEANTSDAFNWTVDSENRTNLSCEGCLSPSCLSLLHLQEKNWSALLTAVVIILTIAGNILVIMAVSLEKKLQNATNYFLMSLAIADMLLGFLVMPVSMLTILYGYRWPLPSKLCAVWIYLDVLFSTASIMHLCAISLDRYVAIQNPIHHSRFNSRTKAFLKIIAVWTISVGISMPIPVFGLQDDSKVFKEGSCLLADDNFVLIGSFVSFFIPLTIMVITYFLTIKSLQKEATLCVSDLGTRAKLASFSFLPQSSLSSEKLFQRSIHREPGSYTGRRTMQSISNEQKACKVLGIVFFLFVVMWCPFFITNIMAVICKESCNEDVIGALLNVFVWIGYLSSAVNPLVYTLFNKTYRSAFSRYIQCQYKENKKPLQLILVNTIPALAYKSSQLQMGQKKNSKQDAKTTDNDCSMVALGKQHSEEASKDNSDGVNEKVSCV

Chain of H1 (rat) (P31390 whole entry): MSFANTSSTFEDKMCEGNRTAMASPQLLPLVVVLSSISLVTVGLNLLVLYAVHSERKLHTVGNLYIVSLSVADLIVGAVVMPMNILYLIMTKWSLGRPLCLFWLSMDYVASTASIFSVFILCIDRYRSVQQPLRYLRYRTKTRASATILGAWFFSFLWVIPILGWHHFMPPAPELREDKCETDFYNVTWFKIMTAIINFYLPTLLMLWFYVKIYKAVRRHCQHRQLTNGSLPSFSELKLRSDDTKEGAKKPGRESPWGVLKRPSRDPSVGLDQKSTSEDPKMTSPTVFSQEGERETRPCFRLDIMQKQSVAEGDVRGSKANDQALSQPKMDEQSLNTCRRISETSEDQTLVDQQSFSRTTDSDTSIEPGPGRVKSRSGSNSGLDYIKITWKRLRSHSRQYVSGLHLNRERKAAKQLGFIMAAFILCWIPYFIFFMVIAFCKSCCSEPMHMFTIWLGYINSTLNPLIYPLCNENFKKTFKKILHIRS

Row | Structure (SMILES) | Ki (H1 (rat)) [nM] | Ki (H1 (hr)) | Ki [1] [nM] | specificity for H1 over the muscarinic receptors ([1]; from Ki for H1 and M1, M2, M3) | Ki [2] [nM] | Ki [3] [nM] | Ki [4] [nM] | Ki (D1 (h)) [nM] | Ki (5HT2a (hctx)) [nM]
1 | Cc1cc2c(s1)Nc1ccccc1N=C2N1CCN(CC(C)(C)C(=O)O)CC1 [Compound 46] | 34 | 30 nM and 44 nM | 56 | highly specific for H1 over the muscarinic receptors | > 10000 | > 10000 | > 10000 | 1550 | 639
2 | CCc1cc2c(s1)Nc1ccccc1N=C2N1CCN(CC(C)(C)C(=O)O)CC1 [Compound 90] | 55.5 | 70 nM | 30 |  | > 10000 | > 10000 | > 10000 | 565 | 314
3 | Cc1cc2c(s1)Nc1ccccc1N=C2N1CCN(CC2(C(=O)O)CC2)CC1 [Compound 91] | 53 | 60.6 nM | 30.1 |  | > 10000 | > 10000 | > 10000 | 278 | 59.1
4 | Cc1cc2c(s1)Nc1ccccc1N=C2N1CCN(CCC(=O)O)CC1 [Compound 92] | 95.6 | 119 nM | 53.5 |  | > 10000 | > 10000 | > 10000 | 129 | 232
5 | CC(C)c1cc2c(s1)Nc1ccccc1N=C2N1CCN(CC(C)(C)C(=O)O)CC1 [Compound 94] | 110 | 62 nM | 45.2 |  | > 10000 | > 10000 | > 10000 | 300 | 73

— patent publication US7807828B2, “Olanzapine analogs and methods of use thereof” (Hypnion, Inc., priority 2005, dated 2010)
